Data as given in ChEMBL document CHEMBL3638993, “Dihydrofolate reductase inhibitors” (2014).
pKi: −log10 of the molar value.

Experiments:
Dihydrofolate reductase [1] = target: T1, Dihydrofolate reductase (Homo sapiens, UniProt P00374); experiment: (§1) Inhibition Assay: Antibacterial activity as measured by the minimal inhibitory concentrations (MIC) and minimal bactericidal concentrations of compounds are well known (see., e.g., National Committee for Clinical Laboratory Standards 2000 Performance standards for antimicrobial disk susceptibility tests: approved standard, 7th ed. M2-A7, vol. 20, no. 1, Committee for Clinical Laboratory Standards, Wayne, Pa.).
T1 sequence (P00374 whole entry): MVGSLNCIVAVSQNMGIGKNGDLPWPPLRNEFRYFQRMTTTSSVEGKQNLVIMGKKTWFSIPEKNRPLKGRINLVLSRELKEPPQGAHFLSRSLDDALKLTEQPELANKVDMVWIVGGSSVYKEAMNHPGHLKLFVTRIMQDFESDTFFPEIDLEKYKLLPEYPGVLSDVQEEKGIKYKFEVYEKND

Dihydrofolate reductase [2] = target: Dihydrofolate reductase (Staphylococcus aureus, UniProt P0A017); experiment: as §1
Sequence of Dihydrofolate reductase (Staphylococcus aureus, UniProt P0A017) (P0A017 whole entry): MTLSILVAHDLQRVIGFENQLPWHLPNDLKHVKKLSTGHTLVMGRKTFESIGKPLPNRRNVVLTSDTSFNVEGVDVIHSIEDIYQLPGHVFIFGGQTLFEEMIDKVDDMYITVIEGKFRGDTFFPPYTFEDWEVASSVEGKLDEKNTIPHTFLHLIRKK

Cc1c(C(=O)OC(C)(C)C)nc(-c2cccs2)n1-c1ccc2c(N)nc(N)nc2c1
pKi (Dihydrofolate reductase [1]): 5.72 | pKi (Dihydrofolate reductase [2]): 9.70
